Assays:
[1] = system: HeLa (human cervical epithelial cells); experiment: In vitro transfection efficiency of FLuc mRNA LNPs, ONE-Glo Luciferase Assay; format: cell-based; conditions: for dose response of transfection efficiency: 50 vs 200 ng/well; for transfection profile and cytotoxicity: compared to negative control (PBS) and positive control (MC3 LNPs at the same dose)
Procedure: (§1) Mammalian cell lines used to measure cytotoxicity and transfection efficiency include HeLa (human cervical epithelial cells), HEK293T/17 (human embryonic kidney cells), HepG2 (human liver epithelial-like cells), and Jurkat E6-1 (human T-lymphocytes). The cells were seeded at 4000 cells/well in a 96-well plate and incubated for 24 hours. The next day, the LNPs of interest were diluted with 1×PBS to 50 ng/ul and administered at predetermined doses to the cells. The cell viability and transfection efficiency were evaluated on the following day (after 24-hour incubation of cells with LNPs). The cell viability was measured with Promega CellTiter-Fluor Cell Viability Assay, and the transfection efficiency was measured with Promega ONE-Glo Luciferase Assay System using Tecan Infinite M200 PRO multimode plate reader instrument. The dose range varied from 50 to 200 ng of nucleic acid per well.

[2] = system: BALB/c mice; experiment: In vivo bioluminescence imaging after administration of Fluc mRNA nanoparticle formulations; parameters: species or system mouse; conditions: for transfection after intramuscular administration: flanks of mice; for luminescent signals detected by in vivo imaging / pattern / origin of luminescence (transfected tissues) / degree of transfection (light flux) in the tested series: intravenous administration; for luminescent signals detected by in vivo imaging / degree of transfection (light flux) in the tested series: mice; for pattern / origin of luminescence (transfected tissues): in vivo and ex vivo organs; for light flux compared to the negative control: normal (50:10:38.5:1.5) and highly PEGylated (50:7:38.5:4.5) formulations
Procedure: A nanoparticle formulation including firefly luciferase (Fluc) mRNA was administered to BALB/c mice by intravenous, intramuscular, intravitreal, or subretinal injection. The intravenous injection was performed by tail-vein or retro-orbital injection. Mice that received a dose of nanoparticle formulation were housed until bioluminescence imaging. Bioluminescence imaging is a method to quantify luminescent signals from the subject. Prior to bioluminescence imaging, the mice were sedated with inhalation of isoflurane. The sedated mice received a dose of D-luciferin salt, which is a substrate of firefly luciferase, by intraperitoneal injection at 150 mg/kg 10 minutes prior to bioluminescence imaging. Bioluminescence imaging was performed on the mice with various exposure times ranging from 1 to 300 seconds using IVIS Lumina XRMS from PerkinElmer. To evaluate the protein expression at an organ level, internal organs of a mouse, such as the liver, lungs, kidneys, spleen, lymph nodes, and heart, and external tissues of mouse, such as muscle tissues close to a site of injection, were excised.

[3] = system: HEK293T/17 (human embryonic kidney cells); experiment: In vitro transfection efficiency of FLuc mRNA LNPs, ONE-Glo Luciferase Assay; format: cell-based; conditions: HEK293T/17, 200 ng (identical dose)
Procedure: as §1

[4] = system: HepG2 (human liver epithelial-like cells); experiment: as above; format: cell-based; conditions: HepG2, 200 ng (identical dose)
Procedure: as §1

| Compound | dose response of transfection efficiency ([1]; HeLa) | transfection after intramuscular administration [2] | luminescent signals detected by in vivo imaging [2] | pattern / origin of luminescence (transfected tissues) [2] | light flux compared to the negative control ([2]; subretinal administration) | decline compared to the positive control [3] [fold] | improvement compared to the positive control ([1]; HeLa cell line, 200 ng treatment) [fold] | transfection profile and cytotoxicity ([1]; HeLa) | decline compared to the positive control [4] [fold] | luciferase signal ([2]; subretinal administration, “normal” formulation (1.5% PEG)) | degree of transfection (light flux) in the tested series [2] | decrease in transfection efficiency vs positive control ([1]; HeLa, MC3 LNPs at the same dose) |
| --- | --- | --- | --- | --- | --- | --- | --- | --- | --- | --- | --- | --- |
| 6-(3-(dimethylamino)propanoyl)-2-((9Z,12Z)-octadeca-9,12-dienamido)-N-((9Z,12Z)-octadeca-9,12-dienoyl)-N-octadecyl-4,5,6,7-tetrahydrothieno[2,3-c]pyridine-3- [26a] | greater at 200 ng/well than at 50 ng/well | successful and comparable transfection of local tissues | successful transfection | local transfection | greater significant light flux | – | – | – | – | – | – | – |
| CCCCC/C=C\C/C=C\CCCCCCCC(=O)N(C(=O)CCCCCCC/C=C\C/C=C\CCCCC)c1sc2c(c1C(=O)OCC)CCN(C(=O)CCCN(C)C)C2 [19da, ethyl 6-(4-(dimethylamino)butanoyl)-2-((9Z,12Z)—N-((9Z,12Z)-octadeca-9,12-dienoyl)octadeca-9,12-dienamido)-4,5,6,7-tetrahydrothieno[2,3-c]pyridine-3-carboxylate] | greater at 200 ng/well than at 50 ng/well | successful and comparable transfection of local tissues | successful transfection | local transfection | greater significant light flux | 3 | ~5 | favorable transfection profile and cytotoxicity | 3 | – | – | – |
| CCCCC/C=C\C/C=C\CCCCCCCC(=O)Nc1sc2c(c1C(=O)N(CCCCCCCCCCCCCCCCCC)C(=O)CCCCCCC/C=C\C/C=C\CCCCC)CCN(C(=O)CCCN(C)C)C2 [26b, 6-(4-(dimethylamino)butanoyl)-2-((9Z,12Z)-octadeca-9,12-dienamido)-N-((9Z,12Z)-octadeca-9,12-dienoyl)-N-octadecyl-4,5,6,7-tetrahydrothieno[2,3-c]pyridine-3-carboxamide] | greater at 200 ng/well than at 50 ng/well | – | successful transfection | local transfection | greater significant light flux | – | – | favorable transfection profile and cytotoxicity | – | not detected | – | – |
| CCCCC/C=C\C/C=C\CCCCCCCC(=O)Nc1sc2c(c1C(=O)NCCCN(C)C)CCN(C(=O)CCCCCCC/C=C\C/C=C\CCCCC)C2 [29d, N-(3-(dimethylamino)propyl)-2-((9Z,12Z)-octadeca-9,12-dienamido)-6-((9Z,12Z)-octadeca-9,12-dienoyl)-4,5,6,7-tetrahydrothieno[2,3-c]pyridine-3-carboxamide] | inverse dose response | – | successful transfection | spleen and lungs | – | – | – | favorable transfection profile and cytotoxicity | – | – | – | – |
| CCCCC/C=C\C/C=C\CCCCCCCCOC(=O)c1c(NC(=O)CCCCCCCCCCCCCCCCC)sc2c1CCNC2 [34a, (9Z,12Z)-octadeca-9,12-dien-1-yl 2-stearamido-4,5,6,7-tetrahydrothieno[2,3-c]pyridine-3-carboxylate] | – | – | successful transfection | liver and spleen | – | – | – | favorable transfection profile and cytotoxicity | – | – | highest light flux | – |
| CCCCC/C=C\C/C=C\CCCCCCCCOC(=O)c1c(NC(=O)CCCCCCC/C=C\C/C=C\CCCCC)sc2c1CCNC2 [34b, (9Z,12Z)-octadeca-9,12-dien-1-yl 2-((9Z,12Z)-octadeca-9,12-dienamido)-4,5,6,7-tetrahydrothieno[2,3-c]pyridine-3-carboxylate] | – | – | successful transfection | – | – | – | – | favorable transfection profile and cytotoxicity | – | – | highest light flux | – |
| CCCCC/C=C\C/C=C\CCCCCCCCOC(=O)c1c(NC(=O)CCCCCCC/C=C\C/C=C\CCCCC)sc2c1CCN(C(=O)CCCN(C)C)C2 [35a, (9Z,12Z)-octadeca-9,12-dien-1-yl 6-(4-(dimethylamino)butanoyl)-2-((9Z,12Z)-octadeca-9,12-dienamido)-4,5,6,7-tetrahydrothieno[2,3-c]pyridine-3-carboxylate] | – | – | successful transfection | – | – | – | – | favorable transfection profile and cytotoxicity | – | – | – | up to 4 ×fold |

Reference: patent US20240300972A1, “THIOPHENE-BASED LIPIDS” (Oregon State University, priority 2021, published 2024)
